Values after ≈ are worked out from the molar mass of the structure shown. Values joined by “and” are separate entries in the source; they are usually repeats but may differ in a detail not shown here. Equal entries are not always repeated. Where a SMILES comes first, the peptide text is derived from it. Where no end group is shown, it is not given here. The star is where a group is joined. Octanoyl = CCCCCCCC(=O)*
Columns and labels:
circulating GH = assay: Circulating GH in 10-day old rats after subcutaneous injection; type: in vivo; conditions: 300 mg/kg, circulating GH at 15 minutes
Experimental: The peptide was injected subcutaneously in 10-day old rats at a dose of 300 mg/kg along with a solvent control and Ghrelin, and the circulating GH determined at 15 minutes, as described in R. Deghenghi et al., Life Sciences 54, 1321-1328 (1994). The results were as follows: The peptide was administered to rats as described above in Example 1. […]

Solubility in water = type: physicochemical; conditions: for solubility: water
Experimental: Solubility in water: 0.7 mg/ml

Compound | GH (circulating GH) | solubility (Solubility in water) [µg/mL] | Solubility in water (Solubility in water)
CCCCCCCC(=O)OC[C@H](NC(=O)[C@H](CO)NC(=O)CN)C(=O)N[C@@H](Cc1ccccc1)C(=O)N[C@@H](CC(C)C)C(=O)N[C@@H](CO)C(=O)N1CCC[C@H]1C(=O)N[C@@H](CCC(=O)O)C(=O)N[C@@H](C)C(=O)N[C@@H](CCCCN)C(=O)N[C@@H](CC(C)C)C(=O)N[C@@H](CCC(N)=O)C(=O)N1CCC[C@H]1C(=O)N[C@@H](CCCNC(=N)N)C(=O)O [Peptide of Example 2, Gly-Ser-Ser(Octanoyl)-Phe-Leu-Ser-Pro-Glu-Ala-Lys-Leu-Gln-Pro-Arg] (H-GSS(Octanoyl)FLSPEAKLQPR-OH) | 7.00 ± 3.5 ng/mL | 900 (≈ 548 µM) | –
CCCCCCCC(=O)OC[C@H](NC(=O)[C@H](CO)NC(=O)CN)C(=O)N[C@@H](Cc1ccccc1)C(=O)O [Peptide of Example 3, Gly-Ser-Ser(Octanoyl)-Phe] (H-GSS(Octanoyl)F-OH; N-terminus and C-terminus assumed) | – | – | insoluble
CCCCCCCC(=O)OC[C@H](NC(=O)[C@H](CO)NC(=O)CN)C(=O)N[C@@H](Cc1ccccc1)C(=O)N[C@@H](CC(C)C)C(=O)N[C@@H](CO)C(=O)N1CCC[C@H]1C(=O)N[C@@H](CCC(=O)O)C(=O)O [Peptide of Example 1, Gly-Ser-Ser(Octanoyl)-Phe-Leu-Ser-Pro-Glu] | – | 700 (≈ 738 µM) | –
Ghrelin (human): peptide of 27 or 28 amino acids with an octanoyl ester on a serine residue; potent releaser of growth hormone (GSS(Octanoyl)FLSPEHQRVQQRKESKKPPAKLQPR; also: octanoyl ester on a serine residue; UniProt Q9UBU3 24-51, looked up) | 139.80 ± 15.37 ng/mL and 140 ± 15 ng/mL and 139.8 ± 15.4 ng/mL | – | –

Source: US20020187938A1, “Ghrelin antagonists” (priority 2000, published 2002)
